# Experimental data from PMC5712521, “Dendrogenin A drives LXR to trigger lethal autophagy in cancers” (Nature Communications, 2017).
# Where a SMILES comes first, the peptide text is derived from it. The star is where a group is joined. Cbz = O=C(OCc1ccccc1)*; CH2F = FC*
# Key:
# [1] = biological target: T1, human liver-X-receptor LXRα (Homo sapiens, UniProt Q13133); test: LXRE-luciferase gene reporter assay in HEK293T, LXRα; format: cell-based; details: DDA analogs
# T1 construct: expressed in transfected cells; host or cells: HEK293T
# T1 sequence (Q13133 1-447): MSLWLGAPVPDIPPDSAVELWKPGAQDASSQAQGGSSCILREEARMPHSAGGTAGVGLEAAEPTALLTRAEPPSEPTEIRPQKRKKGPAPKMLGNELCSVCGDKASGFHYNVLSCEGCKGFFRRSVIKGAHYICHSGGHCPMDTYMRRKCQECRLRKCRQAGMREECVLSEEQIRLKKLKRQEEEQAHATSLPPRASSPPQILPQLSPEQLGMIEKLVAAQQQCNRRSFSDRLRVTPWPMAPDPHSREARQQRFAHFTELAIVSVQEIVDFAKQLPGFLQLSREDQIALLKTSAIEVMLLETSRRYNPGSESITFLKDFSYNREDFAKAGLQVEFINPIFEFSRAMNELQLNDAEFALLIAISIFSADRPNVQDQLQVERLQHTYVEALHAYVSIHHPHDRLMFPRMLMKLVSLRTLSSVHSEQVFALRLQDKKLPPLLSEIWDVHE
# T1 sequence (P48443 1-463 partner): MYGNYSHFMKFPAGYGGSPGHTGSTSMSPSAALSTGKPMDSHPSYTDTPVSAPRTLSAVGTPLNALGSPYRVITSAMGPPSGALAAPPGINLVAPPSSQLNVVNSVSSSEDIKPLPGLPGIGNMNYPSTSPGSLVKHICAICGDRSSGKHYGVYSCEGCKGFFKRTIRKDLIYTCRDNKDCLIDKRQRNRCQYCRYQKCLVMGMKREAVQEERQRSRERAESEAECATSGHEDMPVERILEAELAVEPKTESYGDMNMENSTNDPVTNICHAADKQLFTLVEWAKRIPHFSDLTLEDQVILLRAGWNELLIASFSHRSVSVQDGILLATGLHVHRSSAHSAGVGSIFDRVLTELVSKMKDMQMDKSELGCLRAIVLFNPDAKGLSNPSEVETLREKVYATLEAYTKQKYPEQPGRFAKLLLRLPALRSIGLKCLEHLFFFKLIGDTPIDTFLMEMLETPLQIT
# Text: (§1) HEK293T were used for luciferase assays. Cells were transfected using the PolyEthylenImine (PEI) method with human retinoid-X receptor (RXRγ) and human liver-X-receptors (LXRα or LXRβ) with LXRE-Luc; RXRγ and human farnesoid X receptor (FXR) with EcRE-Luc; RXRγ and human steroid and xenobiotic X receptor (SXR) with DR4-Luc; RXRγ and human peroxisome proliferator activated receptors (PPARα, or PPARγ) with PPRE-Luc; RXRγ and human retinoic acid receptor (RARα) with DR1-Luc; human AHR and human ARNT with a DRE-Luc; human vitamin D receptor (VDR) with VDRE-Luc. Cells were transfected with plasmids encoding human glucocorticoid receptor (GR), progesterone receptor (PR), or androgen receptor (AR) with MMTV-Luc; or estrogen receptors (ERα and ERβ) with an ERE-Luc. The day after transfection with the luciferase reporter gene construct, cells were seeded in 12-well plates (50,000 cells per well). After 6 h, cells were then treated with the following ligands dissolved in ethanol: 10 nM estradiol (E2) for ERα and ERβ; 10 nM R1881 for AR; 10 nM R5020 for PR; 10 nM dexamethasone for GR; 10 µM fenofibrate for PPARα; 100 nM rosiglitazone (BRL 49653) for PPARγ; 100 nM cis-retinoic acid (cRA) for RAR; 10 nM dioxine for AHR, 10 µM rifampicine for SXR and 10 µM 22(R) hydroxycholesterol (22(R)HC) for LXRα and LXRβ. At the end of each treatment, cells were lysed in 100 μl lysis buffer (Promega). Luciferase activity was measured using the luciferase assay reagent (Promega), according to the manufacturer’s instructions. Protein concentrations were measured using the Bradford method to normalize luciferase activities. For each condition, luciferase activity was calculated from the data of three independent wells.
# B16F10 cells = test: DDA-induced cytotoxicity (cell death); format: cell-based
# Description: (§2) Melanoma cells were seeded into 6-well plates at 60,000 cells per well and AML cells at 250,000 cells/ml. The cells were then treated with control solvent vehicle (1/1000 ethanol in water) or DDA. Where indicated, treated cells were incubated in the presence or absence of each inhibitor for time shown. Cell death was determined by the trypan blue exclusion assay. Cells were scraped and resuspended in trypan blue solution (0.25% (w/v) in PBS) and counted in a Malassez cell under light microscopy. Cell viability was then quantified by counting viable (trypan blue-negative) and dead cells (trypan blue-positive).
# (§3) Supplementary Fig. 1. a DDA inhibited m elanom a colony form ation. Melanom a cells were […]
# (§4) a 0.5% solution of crystal violet in water and analyzed by microscopy. Images are representative of 5 independent experiments. b Evaluation of DDA-induced cytotoxicity (cytotox) and clonogenicity (clono) inhibition in a subset of human (H) and mouse (M) m elanom a cell lines. T he BRaf status in m elanom a cells lines is shown. […]
# SKMEL-28 cells = test: DDA-induced cytotoxicity (cell death); format: cell-based
# Description: as §2, §3, §4
# [2] = biological target: T2, human liver-X-receptor LXRβ (Homo sapiens, UniProt P55055); test: LXRE-luciferase gene reporter assay in HEK293T, LXRβ; format: cell-based; details: DDA analogs
# T2 construct: expressed in transfected cells; host or cells: HEK293T
# Text: as §1, with “After 6 h, cells were then treated with the following ligands dissolved in ethanol: 10 nM estradiol (E2) for ERα and ERβ; 10 nM R1881 for AR; 10 nM R5020 for PR; 10 nM dexamethasone for GR; 10 µM fenofibrate for PPARα; 100 nM rosiglitazone (BRL 49653) for PPARγ; 100 nM cis-retinoic acid (cRA) for RAR; 10 nM dioxine for AHR, 10 µM rifampicine for SXR and 10 µM 22(R) hydroxycholesterol (22(R)HC) for LXRα and LXRβ. At the end of each treatment, cells were lysed in 100 μl lysis buffer (Promega).” left out
# AML cells = test: Immunoblot of caspase-3 and PARP in AML cells; format: cell-based, human; details: 50 µM z-VAD-fmk alone (0 µM DDA), 24 h
# Description: Immunoblotting was carried out as described previously. Proteins were separated on SDS-PAGE gels, electro-transferred onto polyvinylidene difluoride membranes and incubated overnight at 4 °C with the following antibodies: anti-Atg3, anti-Atg5 (D1G9), anti-Atg7 (D12B11), anti-Beclin (D40C5), anti-caspase-3 (Cell Signaling), anti-Bcl-2 (Millipore), anti-Bax (Millipore), anti-LC3 (Sigma-Aldrich), anti-LXRα (SantaCruz), anti-LXRβ (SantaCruz), anti-Nur77 (Active motif), anti-NOR1 (R&D systems), anti-PARP (Cell Signaling), anti-Vps34 (Cell Signaling), or anti-Actin (Millipore). For visualization, an ECL plus kit (Amersham Biosciences) was used, and chemiluminescence was measured by autoradiography (Supplementary Fig. 9). Specific bands were quantified with ImageQuant software.
# Supplementary Fig. 6. […]
# AML cells treated with DDA for 24 h in the absence or presence of 50 µM z- VAD-fmk (a
# caspase inhibitor). j Effect of z-VAD-fmk on DDA-induced c ytotox icit y in KG1 and HL60 cells. […]
# Images are
# representative of 3 independent experim ents.
# T2 sequence (P55055 whole entry, one chain of several): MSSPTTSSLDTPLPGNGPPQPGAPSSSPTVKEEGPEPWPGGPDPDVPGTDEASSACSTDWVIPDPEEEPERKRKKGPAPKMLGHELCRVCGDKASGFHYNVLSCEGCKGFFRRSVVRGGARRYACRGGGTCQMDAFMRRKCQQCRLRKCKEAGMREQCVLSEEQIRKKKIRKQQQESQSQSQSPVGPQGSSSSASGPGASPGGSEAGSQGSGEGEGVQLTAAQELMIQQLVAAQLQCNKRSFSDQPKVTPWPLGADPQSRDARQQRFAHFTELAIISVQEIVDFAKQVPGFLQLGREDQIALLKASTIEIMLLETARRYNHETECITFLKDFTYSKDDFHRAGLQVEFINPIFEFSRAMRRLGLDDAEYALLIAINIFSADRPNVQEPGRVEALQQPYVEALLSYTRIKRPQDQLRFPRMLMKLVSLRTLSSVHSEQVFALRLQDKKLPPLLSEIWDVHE
Structure (SMILES),LXRα-dependent agonistic or antagonistic activity [1],cytotoxicity and clonogenicity inhibition (B16F10 cells),cytotoxicity and clonogenicity inhibition (SKMEL-28 cells),LXRβ-dependent agonistic or antagonistic activity [2],"cleaved PARP, densitometry (AML cells)","cleaved casp 3, densitometry (AML cells)"
CC(C)CCCC(C)C1CCC2C3CC(n4cncc4CCN)C4(O)CC(O)CCC4(C)C3CCC12C (stereo not shown) [C17],switch from antagonist to agonist activity,inactive,inactive,,,
CC(C)CCCC(C)C1CCC2C3C[C@@H](NCCO)[C@@]4(O)C[C@@H](O)CC[C@]4(C)C3CC[C@]12C (stereo partly shown) [C41],switch from antagonist to agonist activity,,,antagonist-agonist switch,,
"COC(=O)C[C@H](NC(=O)[C@H](C)NC(=O)[C@@H](NC(=O)OCc1ccccc1)C(C)C)C(=O)CF [z-VAD-fmk, reference compound] (Cbz-Val-Ala-Asp(OMe)-CH2F)",,,,,0.6,0.4
